The text below walks through data of patent US20240252440A1, “COMPOSITIONS, METHODS AND SYSTEMS FOR AEROSOL DRUG DELIVERY” (ASTRAZENECA PHARMACEUTICALS LP, priority 2021, published 2024).

This data set is described as follows: Particle size distribution by laser diffraction. In kind it is physicochemical. The source says: When referred to herein, the term “optical diameter” indicates the size of a particle as measured by the Fraunhofer diffraction mode using a laser diffraction particle size analyzer equipped with a dry powder dispenser (e.g., Sympatec GmbH, Clasthal-Zellerfeld, Germany).
Suspending particles were manufactured by spray drying an emulsion of PFOB (perfluorooctyl bromide) and water stabilized by DSPC (1,2-Distearoyl-sn-Glycero-3-Phosphocholine). […] The particle size distribution of the suspending particles was determined by laser diffraction.
Active agent particles formed of budesonide, 16,17-(butylidenebis(oxy))-11,21-dihydroxy-(11-β,16-α)-pregna-1,4-diene-3,20-dione, were formed by micronizing budesonide using a jet mill. The particle size distribution of the budesonide (BD) was determined by laser diffraction.

In the case of `COc1ccc(CC(C)NCC(O)c2ccc(O)c(NC=O)c2)cc1.O=C(O)/C=C/C(=O)O` (racemic) [formoterol fumarate, (±)-2-hydroxy-5-[(1RS)-1-hydroxy-2-[[(1RS)-2-(4-methoxyphenyl)-1-methylethyl]-amino]ethyl]formanilide fumarate], the “optical diameter exhibited by 50% by volume of the particles” value is recorded as “smaller than 1.6 μm” and the “optical diameter exhibited by 90% by volume of the particles” value was “smaller than 3.9 μm”.

As for `C[N+]1(C)CCC(OC(=O)C(O)(c2ccccc2)C2CCCC2)C1.[Br-]` (stereo not drawn) [glycopyrrolate, Pyrrolidinium, 3-((cyclopentylhydroxyphenylacetyl)oxy)-1,1-dimethyl-, bromide], the “optical diameter exhibited by 50% by volume of the particles” value is listed as “smaller than 2.1 μm” and the “optical diameter exhibited by 90% by volume of the particles” value is “smaller than 5 μm”.

Take albuterol sulfate: the “optical diameter exhibited by 50% by volume of the particles” value was “smaller than 1.5 μm” and the “optical diameter exhibited by 90% by volume of the particles” value is on record as “smaller than 3.3 μm”.
